Measured values taken from patent publication US11464770B2, “Anticancer pharmaceutical composition” (NATIONAL CANCER CENTER, priority 2016, dated 2022).
Where two headings read alike, the source gives them in different places.

How the values were obtained:
neuroblastoma cell lines = test: Cell based assay, cell viability (CellTiter-Glo), neuroblastoma cell lines; settings: Homo sapiens; SH-SY5Y cell line
Method in brief: (§1)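 Trypsin-EDTA-detached lines seeded; 24 h later compound added (final 0–2 μM); 72 h exposure; ATP luminescence viability readout.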

melanoma cell lines = test: Cell based assay, cell viability (CellTiter-Glo), melanoma cell lines; settings: Homo sapiens; LOX-IMVI cell line
Method in brief: as §1

[1] = test system: breast cancer cell lines (e.g. MDA-MB-231, SK-BR-3, MDA-MB-468, HCC1954); test: Cell based assay, cell viability (CellTiter-Glo), breast cancer cell lines; settings: 72 hours, CellTiter-Glo
Method in brief: as §1

[2] = Breast cancer cell line MDA-MB-231-L/DOX, read-out: IC50, MDA-MB-231-L/DOX
[3] = Homo sapiens, Breast cancer cell line BT-20, read-out: IC50, BT-20
[4] = Homo sapiens, Breast cancer cell line HCC1395, read-out: IC50, HCC1395
[5] = Homo sapiens, Breast cancer cell line HCC1954, read-out: IC50, HCC1954
[6] = Homo sapiens, Breast cancer cell line JIMT-1, read-out: IC50, JIMT-1
[7] = Homo sapiens, Breast cancer cell line MCF7, read-out: IC50, MCF7
[8] = Homo sapiens, Breast cancer cell line MDA-MB-231, read-out: IC50, MDA-MB-231
[9] = Homo sapiens, Breast cancer cell line MDA-MB-468, read-out: IC50, MDA-MB-468
[10] = Homo sapiens, Breast cancer cell line SK-BR-3, read-out: IC50, SK-BR-3

Row | IC50 (neuroblastoma cell lines) [µM] | IC50 (melanoma cell lines) [µM] | IC50 [1, 2] [µM] | IC50 [1, 3] [µM] | IC50 [1, 4] [µM] | IC50 [1, 5] [µM] | IC50 [1, 6] [µM] | IC50 [1, 7] [µM] | IC50 [1, 8] [µM] | IC50 [1, 9] [µM] | IC50 [1, 10] [µM] | SMILES
1 | > 2 | 1.24 | > 2 | > 2 | > 10 | > 2 | > 10 | > 2 | > 2 | > 2 | 0.85 | CC(=O)c1c([S+]([O-])Cc2ccc(F)cc2F)[nH]c2c(Br)ccc(Cl)c2c1=O (stereo not drawn) [Compound 29, 3-acetyl-8-bromo-5-chloro-2-((2,4-difluorobenzyl)sulfinyl)quinolin-4(1H)-one]
2 | > 2 | 1.11 | > 2 | > 2 | > 10 | > 2 | > 10 | > 2 | 1.33 | > 2 | 0.95 | CC(=O)c1c([S+]([O-])Cc2ccc(F)c(Cl)c2)[nH]c2c(Br)ccc(Cl)c2c1=O (stereo not drawn) [Compound 31, 3-acetyl-8-bromo-5-chloro-2-((3-chloro-4-fluorobenzyl)sulfinyl)quinolin-4(1H)-one]
3 | > 2 | 1.63 | > 2 | > 2 | > 10 | > 2 | > 10 | > 2 | > 2 | > 2 | 1.27 | CC(=O)c1c(S(=O)(=O)Cc2ccccc2)[nH]c2c(Br)ccc(Cl)c2c1=O [Compound 34, 3-acetyl-2-(benzylsulfonyl)-8-bromo-5-chloroquinolin-4(1H)-one]
4 | > 2 | 1.64 | > 2 | > 2 | > 10 | > 2 | > 10 | > 2 | > 2 | > 2 | 1.06 | CC(=O)c1c([S+]([O-])Cc2cc(Cl)ccc2Cl)[nH]c2c(Br)ccc(Cl)c2c1=O (stereo not drawn) [Compound 44, 3-acetyl-8-bromo-5-chloro-2-((2,5-dichlorobenzyl)sulfinyl)quinolin-4(1H)-one]
5 | > 2 | 1.57 | > 2 | > 2 | > 10 | > 2 | > 10 | > 2 | > 2 | > 2 | 1.16 | CC(=O)c1c([S+]([O-])Cc2cc(F)cc(F)c2)[nH]c2c(Br)ccc(Cl)c2c1=O (stereo not drawn) [Compound 46, 3-acetyl-8-bromo-5-chloro-2-((3,5-difluorobenzyl)sulfinyl)quinolin-4(1H)-one]
6 | > 2 | 1.51 | > 2 | > 2 | > 10 | > 2 | > 10 | > 2 | > 2 | > 2 | 1.01 | CC(=O)c1c([S+]([O-])Cc2cccc(F)c2)[nH]c2c(Br)ccc(Cl)c2c1=O (stereo not drawn) [Compound 50, 3-acetyl-8-bromo-5-chloro-2-((3-fluorobenzyl)sulfinyl)quinolin-4(1H)-one]
7 | > 2 | 1.46 | > 2 | > 2 | > 10 | > 2 | > 10 | > 2 | 1.55 | > 2 | 0.54 | CC(=O)c1c([S+]([O-])Cc2cc(C)on2)[nH]c2c(Br)ccc(Cl)c2c1=O (stereo not drawn) [Compound 51, 3-acetyl-8-bromo-5-chloro-2-(((5-methylisoxazol-3-yl)methyl)sulfinyl)quinolin-4(1H)-one]
8 | > 2 | 1.62 | > 2 | > 2 | > 10 | > 2 | > 10 | > 2 | > 2 | > 2 | 1.1 | COc1cccc(C[S+]([O-])c2[nH]c3c(Br)ccc(Cl)c3c(=O)c2C(C)=O)c1 (stereo not drawn) [Compound 55, 3-acetyl-8-bromo-5-chloro-2-((3-methoxybenzyl)sulfinyl)quinolin-4(1H)-one]
9 | > 2 | 1.09 | > 2 | > 2 | > 10 | 1.47 | > 10 | > 2 | 1.45 | 1.64 | 1.38 | CC(=O)c1c([S+]([O-])Cc2ccc(SC(F)(F)F)cc2)[nH]c2c(Br)ccc(Cl)c2c1=O (stereo not drawn) [Compound 56, 3-acetyl-8-bromo-5-chloro-2-((4-((trifluoromethyl)thio)benzyl)sulfinyl)quinolin-4(1H)-one]
10 | > 2 | > 2 | > 2 | > 2 | > 10 | > 2 | > 10 | > 2 | > 2 | > 2 | 1.34 | CC(=O)c1c([S+]([O-])Cc2ccc([N+](=O)[O-])cc2)[nH]c2c(Cl)ccc(Cl)c2c1=O (stereo not drawn) [Compound 57, 3-acetyl-5,8-dichloro-2-((4-nitrobenzyl)sulfinyl)quinolin-4(1H)-one]
11 | > 2 | 1.06 | > 2 | > 2 | > 10 | > 2 | > 10 | > 2 | > 2 | > 2 | 1.08 | COc1cc(C[S+]([O-])c2[nH]c3c(Br)ccc(Cl)c3c(=O)c2C(C)=O)cc(OC)c1 (stereo not drawn) [Compound 59, 3-acetyl-8-bromo-5-chloro-2-((3,5-dimethoxybenzyl)sulfinyl)quinolin-4(1H)-one]
12 | > 2 | 1.67 | > 2 | > 2 | > 10 | > 2 | > 10 | > 2 | > 2 | > 2 | 1.88 | CC(=O)c1c([S+]([O-])Cc2ccc(C(C)(C)C)cc2)[nH]c2c(Br)ccc(Cl)c2c1=O (stereo not drawn) [Compound 60, 3-acetyl-8-bromo-2-((4-(tert-butyl)benzyl)sulfinyl)-5-chloroquinolin-4(1H)-one]
13 | > 2 | 1.05 | > 2 | > 2 | > 10 | > 2 | > 10 | > 2 | > 2 | > 2 | 1.03 | CC(=O)c1c([S+]([O-])Cc2ccc([S+]([O-])C(F)(F)F)cc2)[nH]c2c(Br)ccc(Cl)c2c1=O (stereo not drawn) [Compound 64, 3-acetyl-8-bromo-5-chloro-2-((4-((trifluoromethyl)sulfinyl)benzyl)sulfinyl)quinolin-4(1H)-one]
14 | > 2 | 1.19 | > 2 | > 2 | > 10 | > 2 | > 10 | > 2 | > 2 | > 2 | 1.21 | CC(=O)c1c([S+]([O-])Cc2ccc(C(F)(F)F)cc2)[nH]c2c(Br)ccc(Cl)c2c1=O (stereo not drawn) [Compound 70, 3-acetyl-8-bromo-5-chloro-2-((4-(trifluoromethyl)benzyl)sulfinyl)quinolin-4(1H)-one]
15 | > 2 | 1.41 | > 2 | > 2 | > 10 | > 2 | > 10 | > 2 | > 2 | > 2 | 1.55 | CC(=O)c1c([S+]([O-])Cc2ccc(OC(F)(F)F)cc2)[nH]c2c(Br)ccc(Cl)c2c1=O (stereo not drawn) [Compound 71, 3-acetyl-8-bromo-5-chloro-2-((4-(trifluoromethoxy)benzyl)sulfinyl)quinolin-4(1H)-one]
16 | > 2 | 0.92 | > 2 | > 2 | > 2 | > 2 | > 2 | > 2 | 1.38 | > 2 | 0.85 | CC(=O)c1c([S+]([O-])Cc2ccc(C(F)(F)F)o2)[nH]c2c(Br)ccc(Cl)c2c1=O (stereo not drawn) [Compound 72, 3-acetyl-8-bromo-5-chloro-2-(((5-(trifluoromethyl)furan-2-yl)methyl)sulfinyl)quinolin-4(1H)-one]
17 | > 2 | 1.67 | > 2 | > 2 | > 10 | > 2 | > 10 | > 2 | > 2 | > 2 | 1.2 | CC(=O)c1c([S+]([O-])Cc2ccc(C#N)cc2)[nH]c2c(Br)ccc(Cl)c2c1=O (stereo not drawn) [Compound 73, 4-(((3-acetyl-8-bromo-5-chloro-4-oxo-1,4-dihydroquinolin-2-yl)sulfinyl)methyl)benzonitrile]
18 | > 2 | 1.26 | > 2 | > 2 | > 10 | > 2 | > 10 | > 2 | > 2 | > 2 | 1.06 | CC(=O)c1c([S+]([O-])Cc2c(F)cccc2Cl)[nH]c2c(Br)ccc(Cl)c2c1=O (stereo not drawn) [Compound 74, 3-acetyl-8-bromo-5-chloro-2-((2-chloro-6-fluorobenzyl)sulfinyl)quinolin-4(1H)-one]
19 | > 2 | 1.04 | > 2 | > 2 | > 2 | > 2 | > 2 | > 2 | 1.16 | > 2 | 1.7 | COc1cc(S(F)(F)(F)(F)F)ccc1C[S+]([O-])c1[nH]c2c(Br)ccc(Cl)c2c(=O)c1C(C)=O (stereo not drawn) [Compound 75, 3-acetyl-8-bromo-5-chloro-2-((2-methoxy-4-(pentafluoro--sulfanyl)benzyl)sulfinyl)quinolin-4(1H)-one]
20 | > 2 | 1.37 | > 2 | > 2 | > 10 | > 2 | > 10 | > 2 | > 2 | > 2 | 1.72 | CC(=O)c1c([S+]([O-])Cc2cc(F)cc(S(F)(F)(F)(F)F)c2)[nH]c2c(Br)ccc(Cl)c2c1=O (stereo not drawn) [Compound 76, 3-acetyl-8-bromo-5-chloro-2-((3-fluoro-5-(pentafluoro--sulfanyl)benzyl)sulfinyl)quinolin-4(1H)-one]

Row | SMILES | IC50 (neuroblastoma cell lines) [µM] | IC50 (melanoma cell lines) [µM] | IC50 [1, 2] [µM] | IC50 [1, 3] [µM] | IC50 [1, 4] [µM] | IC50 [1, 5] [µM] | IC50 [1, 6] [µM] | IC50 [1, 7] [µM] | IC50 [1, 8] [µM] | IC50 [1, 9] [µM] | IC50 [1, 10] [µM]
21 | CC(=O)c1c([S+]([O-])Cc2ccc([N+](=O)[O-])cc2)[nH]c2c(Br)ccc(Cl)c2c1=O (stereo not drawn) [Compound 33, 3-acetyl-8-bromo-5-chloro-2-((4-nitrobenzyl)sulfinyl)quinolin-4(1H)-one] | > 2 | 1.13 | > 2 | > 2 | > 10 | > 2 | > 10 | > 2 | > 2 | > 2 | 1
